Measured values: paper PMC11403616, “Arcopilins: A New Family of Staphylococcus aureus Biofilm Disruptors from the Soil Fungus Arcopilus navicularis” (Journal of Medicinal Chemistry, 2024)
Values after ≈ are worked out from the molar mass of the structure shown. “Also recorded” adds a separate entry of the source. Marks after values point to notes of the source that are not given here. Values belong to the compound of their own block, whether it stands above or below them.

Key:
[1] = test system: B. subtilis DSM 10; experiment: MIC against bacteria (antimicrobial assay); type: cell-based, Bacillus subtilis
Procedure: (§1) The antimicrobial activities of compounds 1–7 (Acp A–G) were assessed against different bacterial and fungal strains in addition to their cytotoxic effects on two mammalian cell lines. The tested microorganisms comprised a diverse array of clinically relevant pathogens, encompassing sensitive indicator strains. Among the Gram-positive bacteria were Bacillus subtilis, Staphylococcus aureus, and Mycolicibacterium smegmatis. Gram-negative bacteria included Acinetobacter baumannii, Chromobacterium violaceum, Escherichia coli, and Pseudomonas aeruginosa. Additionally, filamentous fungi such as Mucor hiemalis and yeasts including Candida albicans, Wickerhamomyces anomalus, Rhodotorula glutinis, and Schizosaccharomyces pombe were included. Generally, all compounds presented similar biological properties, summarized in weak or no activity against fungal pathogens as well as weak to moderate inhibition of Gram-positive bacteria (Table 2).
(§2) The antimicrobial and cytotoxic assays were performed according to the methods reported previously.[57]

[2] = test system: S. aureus DSM 346; experiment: MIC against bacteria (antimicrobial assay); type: cell-based, Staphylococcus aureus; conditions: for MIC: Staphylococcus aureus, DSM346, DSM 346, – = no activity observed under test conditions
Procedure: as §1, §2

[3] = test system: S. aureus DSM 1104; experiment: MIC against bacteria (antimicrobial assay); type: cell-based, Staphylococcus aureus
Text: The tested microorganisms comprised a diverse array of clinically relevant pathogens, encompassing sensitive indicator strains. Among the Gram-positive bacteria were Bacillus subtilis, Staphylococcus aureus, and Mycolicibacterium smegmatis. Gram-negative bacteria included Acinetobacter baumannii, Chromobacterium violaceum, Escherichia coli, and Pseudomonas aeruginosa. Additionally, filamentous fungi such as Mucor hiemalis and yeasts including Candida albicans, Wickerhamomyces anomalus, Rhodotorula glutinis, and Schizosaccharomyces pombe were included.
as §2

[4] = test system: S. pombe DSM 70572; experiment: MIC against fungi (antimicrobial assay); type: cell-based, Schizosaccharomyces pombe
Procedure: as §1, §2

[5] = test system: C. albicans DSM 1665; experiment: MIC against fungi (antimicrobial assay); type: cell-based, Candida albicans
Procedure: as §1, §2

[6] = test system: M. hiemalis DSM 2656; experiment: MIC against fungi (antimicrobial assay); type: cell-based, Mucor hiemalis
Procedure: as §1, §2

[7] = test system: KB-3-1 (ACC 158); experiment: Cytotoxicity against mammalian cell lines; type: cell-based; conditions: Homo sapiens, KB 3-1; ACC 158; – = no activity observed under test conditions; read-out: IC50 against mammalian cell lines, KB-3-1
Procedure: as §1, §2

[8] = test system: L929 (ACC 2); experiment: Cytotoxicity against mammalian cell lines; type: cell-based; conditions: Mus musculus, L929; ACC 2; – = no activity observed under test conditions; read-out: IC50 against mammalian cell lines, L929
Procedure: as §1, §2

[9] = test system: preformed biofilms of S. aureus DSM 1104; experiment: Disruption of preformed biofilms, crystal violet assay; type: cell-based, Staphylococcus aureus
Procedure: Therefore, Acp A–G were evaluated against preformed biofilms of S. aureus using crystal violet staining.[47]
Cultures of S. aureus DSM 1104 were prepared by inoculating 1 mL aliquots from a frozen stock (−20 °C) into 25 mL of CASO medium and incubating them overnight at 37 °C with shaking at 130 rpm.
The crystal violet assay was performed according to a previously reported procedure.[47] Arcopilins A–G were tested in serial dilutions (250–2 μg/mL), with methanol and microporenic acid A (MAA) as negative and positive controls, respectively. Statistical differences between samples and the controls were determined using a two-tailed Student’s t test, with statistical significance defined as p < 0.01. Statistical analysis was carried out using GraphPad Prism 9 (GraphPad Software, San Diego, CA).[58]

[10] = test system: preformed biofilm cells of S. aureus DSM 1104; experiment: XTT assay, metabolic activity in preformed biofilm cells; type: cell-based, Staphylococcus aureus; conditions: 24 h treatment
Procedure: The seed culture of S. aureus DSM 1104 was prepared as previously described, and its OD600 was adjusted to match the turbidity of a 0.001 McFarland standard. Next, 150 μL of this bacterial solution in CASO with 4% glucose broth was incubated in 96-well tissue plates (TPP tissue culture ref no. 92196, Switzerland) for 24 h at 150 rpm. After incubation, the supernatant was discarded and 150 μL of the fresh media was added to the wells, along with serially diluted arcopilin A (31.3–0.5 μg/mL). The plate was further incubated for 24 h. Afterward, XTT (Cell profile XTT kit, Roche, Switzerland) was prepared in phosphate-buffered saline (PBS) at a final concentration of 0.3 mg/mL. The plate was washed three times with PBS buffer, and then, 150 μL of the prepared XTT solution was added to each well. Plates were further incubated for an additional 4 h at 37 °C while shaking (150 rpm), and absorbance was measured at 490 nm using a plate reader (Synergy 2, BioTek, Santa Clara). Methanol (2.5%) was used as the solvent control. Error bars indicate the standard deviation (SD) of duplicate with two repeats.

[11] = test system: planktonic cells of S. aureus DSM 1104; experiment: Checkerboard broth dilution assay (FICI); type: cell-based, Staphylococcus aureus; conditions: for MIC: Staphylococcus aureus, DSM1104, compound alone, read-out: MIC of each single compound (MICs)
Text: After assessing the effects of Acp A on the pathogen S. aureus, we delved deeper into the interaction of Acp A with established antibiotics (GM and Vac). This exploration focused on both planktonic cells and preformed biofilms of S. aureus. Consequently, we used a checkerboard assay to determine the fractional inhibitory concentration index (FICI) for combinations involving Acp A, GM, or Vac based on both their MIC values in combination.[49]
The interaction between arcopilin A, vancomycin, and gentamicin against S. aureus DSM 1104 was evaluated using a checkerboard broth dilution method to determine the fractional inhibitory concentration indices (FICIs), calculated as FIC = MIC of drug A in combination/MIC of drug A alone + MIC of drug B in combination/MIC of drug B alone.[59] The FICIs were interpreted as synergistic (FICI ≤ 0.5). For this assay, a seed culture was prepared as previously described to inoculate fresh CASO with 4% glucose broth to match the turbidity of a 0.1 McFarland standard suspension. Then, 100 μL of bacterial suspension was distributed in 96-well nontissue microtiter plates (TPP nontissue culture ref no. 92197, Switzerland). Arcopilin A (7.8–2 μg/mL) and antibiotics (vancomycin and gentamicin: 31.3–0.016 μg/mL) were added in increasing concentrations in columns and rows, respectively. The experiments were conducted in duplicate.

[12] = test system: W. anomalus DSM 6766; experiment: MIC against fungi (antimicrobial assay); type: cell-based, Wickerhamomyces anomalus; conditions: – = no activity observed under test conditions
Procedure: as §1, §2

[13] = test system: R. glutinis DSM 10134; experiment: MIC against fungi (antimicrobial assay); type: cell-based, Rhodotorula glutinis; conditions: – = no activity observed under test conditions
Procedure: as §1, §2

[14] = test system: C. violaceum DSM 30191; experiment: MIC against bacteria (antimicrobial assay); type: cell-based; conditions: Chromobacterium violaceum, DSM30191, – = no activity observed under test conditions
Procedure: as §1, §2

[15] = test system: E. coli DSM 1116; experiment: MIC against bacteria (antimicrobial assay); type: cell-based; conditions: Escherichia coli, DSM1116, – = no activity observed under test conditions
Procedure: as §1, §2

[16] = test system: preformed biofilms of S. aureus DSM 1104; experiment: CFU count analysis, synergistic effects on preformed biofilms; type: cell-based, Staphylococcus aureus; conditions: Acp A 7.8–3.9 μg/mL, GM 7.8–2 μg/mL, Vac 15.6–3.9 μg/mL
Procedure: The seed culture of S. aureus DSM 1104 was prepared as previously described, and the OD600 was adjusted to match the turbidity of a 0.001 McFarland standard. Then, 150 μL of bacterial solution in CASO with 4% glucose broth was incubated in 96-well tissue plates (TPP tissue culture ref no. 92196, Switzerland) for 24 h at 150 rpm. […] Methanol (2.5%) was used as the solvent control. The plates were incubated for a further 24 h at 37 °C. Colony-forming unit (CFU) count analysis of arcopilin A, antibiotics (vancomycin and gentamicin), and their combinations was performed as previously described.[58] Cells were suspended in the well 50 times. Dilution series in 1 to 10 steps (20 μL in 200 μL) were prepared down to a final dilution level of 10^–6, and 100 μL of this last dilution was platted on LB agar plates using 3 mm small glass beads (5 to 10, Omnilab, Germany) to homogeneously spread the liquid. Individual colonies on agar plates were counted after incubation at 30 °C for 24 and 48 h.[60] Afterward, CFUs were calculated by considering the dilution factors. Error bars indicate the SD of duplicate with two repeats.

[17] = supplement CSV, decimal comma, unit not given, in µg/mL

MIC ([1]; Bacillus subtilis, DSM10, DSM 10, – = no activity observed under test conditions): 66.7 µg/mL (≈ 181 µM)
MIC B. subtilis [1, 17]: 66,7
MIC [2]: 66.7 µg/mL (≈ 181 µM)
MIC S. aureus ([2]; supplement CSV, S. aureus, decimal comma, unit not given, in µg/mL): 66,7
MIC ([3]; Staphylococcus aureus, DSM1104, DSM 1104): 31.3 µg/mL (≈ 84.7 µM)
MIC S. aureus ([3]; supplement CSV, second S. aureus column (value matches DSM 1104 of Table 2), decimal comma, unit not given, in µg/mL): 31,3
MIC ([4]; Schizosaccharomyces pombe, DSM70572, DSM 70572, – = no activity observed under test conditions): 66.7 µg/mL (≈ 181 µM)
MIC S. pombe [4, 17]: 66,7
MIC ([5]; Candida albicans, DSM1665, DSM 1665, – = no activity observed under test conditions): 66.7 µg/mL (≈ 181 µM)
MIC C. albicans [5, 17]: 66,7
MIC ([6]; Mucor hiemalis, DSM2656, DSM 2656, – = no activity observed under test conditions): 66.7 µg/mL (≈ 181 µM)
MIC M. hiemalis [6, 17]: 66,7
MIC [11]: 31.3 µg/mL
decrease of the MIC value when combined with each antibiotic ([11]; combined with GM or Vac): ~10 fold
Structure (SMILES): CC(=O)[C@H](C)C[C@@H](C)C[C@H](C)C(=O)C1=C(O)/C(=C/c2ccccc2)NC1=O [Acp A, Arcopilin A]
IC50 [7]: 8.9 µg/mL (≈ 24.1 µM)
IC50 [8]: 14 µg/mL (≈ 37.9 µM)
efficacy toward preformed biofilms ([9]; at 3.9 μg/mL): 35–45%
efficacy toward preformed biofilms ([9]; concentration range 15.6 to 250 μg/mL): 50–60%
disrupting effect on preformed biofilms (in words) ([9]; tested 250–2 μg/mL): most promising disrupting effects; also recorded: remarkable effectiveness
lowest concentration with significant reduction in metabolic activity [10]: 3.9 µg/mL

Structure (SMILES): C[C@@H]1[C@H](O)[C@@H](C)/C=C/C=C/CC/C=C/C=C/C=C/C=C/C(O[C@H]2O[C@H](C)[C@@H](O)[C@H](N)[C@@H]2O)CC2O[C@](O)(CC(O)C(O)CCC(O)CC(O)CC(O)CC(=O)O[C@H]1C)CC(O)C2C(=O)O (stereo partly drawn) [Nystatin, reference compound]
MIC against fungi, W. anomalus [12]: 8.3^e μg/mL
MIC against fungi, S. pombe ([4]; DSM 70572, – = no activity observed under test conditions): 4.2^e μg/mL
MIC against fungi, C. albicans ([5]; DSM 1665, – = no activity observed under test conditions): 8.3^e μg/mL
MIC against fungi, M. hiemalis ([6]; DSM 2656, – = no activity observed under test conditions): 8.3^e μg/mL
MIC against fungi, R. glutinis [13]: 4.2^e μg/mL

MIC [2]: 0.4 µg/mL (≈ 0.838 µM)
MIC [14]: 0.42 µg/mL (≈ 0.879 µM)
MIC [15]: 1.7 µg/mL (≈ 3.56 µM)
MIC [11]: 15.6 µg/mL
MIC in combination (MICc), Acp A and GM ([11]; combination of Acp A (3.9 μg/mL) with GM): 0.13 µg/mL
Structure (SMILES): CNC(C)C1CCC(N)C(OC2C(N)CC(N)C(OC3OCC(C)(O)C(NC)C3O)C2O)O1 (stereo not drawn) [Gentamicin]
increase of the potency of the antibiotic in combination with Acp A ([11]; Acp A 3.9 μg/mL, MIC alone versus in combination): up to 115 fold
FICI, Acp A and GM ([11]; FICI < 0.5: synergistic, value belongs to the combination): < 0.5
improvement in the inhibitory effects in combination with Acp A [16]: ~3 fold
